# Non-standard residues stand in square brackets, D forms with d. No end group written: not given here. *: point of attachment. β‑estradiol 3‑ether = C[C@]12CC[C@@H]3c4ccc(O*)cc4CC[C@H]3[C@@H]1CC[C@@H]2O; Aib = CC(C)(N)C(=O)O
# Tests used:
# [1] = biological target: T1, glucocorticoid receptor (Homo sapiens, UniProt P04150); test: Glucocorticoid receptor luciferase reporter gene assay in HeLa cell clones (MMTV-LTR luciferase); assay type: cell-based; conditions: Example 37; two HeLa reporter clones; compared with unconjugated dexamethasone
# T1 construct: two clones of HeLa cells (ATCC #CCL-2) transfected with murine mammary tumor virus long terminal repeat-driven firefly luciferase; host or cells: HeLa
# T1 sequence (P04150 1-777): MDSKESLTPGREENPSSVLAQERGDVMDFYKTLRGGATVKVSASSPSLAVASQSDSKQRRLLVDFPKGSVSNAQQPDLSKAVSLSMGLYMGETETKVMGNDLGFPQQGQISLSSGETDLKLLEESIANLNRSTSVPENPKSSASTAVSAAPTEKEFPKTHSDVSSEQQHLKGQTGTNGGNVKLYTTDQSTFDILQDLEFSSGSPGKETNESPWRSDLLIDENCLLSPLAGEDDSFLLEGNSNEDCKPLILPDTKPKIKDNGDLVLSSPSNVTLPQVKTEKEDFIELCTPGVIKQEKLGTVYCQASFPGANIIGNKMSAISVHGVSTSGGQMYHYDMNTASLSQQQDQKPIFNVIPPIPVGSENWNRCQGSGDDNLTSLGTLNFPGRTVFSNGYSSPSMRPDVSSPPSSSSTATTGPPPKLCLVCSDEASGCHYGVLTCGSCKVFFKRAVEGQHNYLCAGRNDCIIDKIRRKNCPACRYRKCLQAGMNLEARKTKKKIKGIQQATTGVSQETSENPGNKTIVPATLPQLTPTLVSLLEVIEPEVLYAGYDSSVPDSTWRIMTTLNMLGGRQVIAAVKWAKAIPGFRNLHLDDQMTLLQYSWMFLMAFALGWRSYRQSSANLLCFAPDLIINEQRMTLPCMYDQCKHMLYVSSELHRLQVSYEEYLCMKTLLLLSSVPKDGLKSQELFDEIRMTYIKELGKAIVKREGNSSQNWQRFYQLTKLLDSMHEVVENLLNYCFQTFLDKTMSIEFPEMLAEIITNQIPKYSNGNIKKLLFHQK
# Protocol: The activities of the peptide conjugates in Examples 32 and 33 at the glucocorticoid receptor were tested in the luciferase reporter gene assay using two clones of HeLa cells (ATCC #CCL-2) transfected with murine mammary tumor virus long terminal repeat-driven firefly luciferase.
# [2] = biological target: T2, GLP-1 receptor (Homo sapiens, UniProt P43220); test: GLP-1 Activity (cAMP induction), CRE-luciferase reporter in HEK293 cells; assay type: cell-based
# T2 construct: expressed in transfected cells; host or cells: HEK293
# T2 sequence (P43220 24-463, species assumed): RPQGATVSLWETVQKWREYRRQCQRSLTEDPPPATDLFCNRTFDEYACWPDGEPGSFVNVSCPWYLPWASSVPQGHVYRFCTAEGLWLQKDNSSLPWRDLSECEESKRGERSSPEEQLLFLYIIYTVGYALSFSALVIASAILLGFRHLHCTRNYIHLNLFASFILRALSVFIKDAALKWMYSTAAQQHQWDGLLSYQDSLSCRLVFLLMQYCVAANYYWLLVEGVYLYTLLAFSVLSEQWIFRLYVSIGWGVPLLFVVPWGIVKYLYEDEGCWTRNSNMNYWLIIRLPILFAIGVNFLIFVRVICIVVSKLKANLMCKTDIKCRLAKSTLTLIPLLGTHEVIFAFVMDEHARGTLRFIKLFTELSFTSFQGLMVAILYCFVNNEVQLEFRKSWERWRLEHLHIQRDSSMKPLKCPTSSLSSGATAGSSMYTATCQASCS
# Protocol: (§1) Luminescence was measured after cell lysis and incubation with luciferin.
# as §1, §1
# [3] = biological target: T2, GLP-1 receptor; test: GLP-1 Binding, [I125]-GLP-1 SPA with receptor membrane extracts
# [4] = Example 16: mice on diabetic diet for 9 months, sc dosing; assay type: in vivo; conditions: low daily dose, 7 days
# [5] = biological target: T2, GLP-1 receptor; test: cAMP induction, firefly luciferase reporter assay in HEK293 cells, GLP-1 receptor; assay type: cell-based; conditions: GLP-1 receptor versus glucagon receptor
# Protocol: The ability of each peptide to induce cAMP was measured in a firefly luciferase-based reporter assay. […] HEK293 cells co-transfected with the receptor and luciferase gene linked to a cAMP responsive element were employed for the bioassay.
# At the end of the incubation, 100 μL of LucLite luminescence substrate reagent (Perkin Elmer, Wellesley, Mass.) were added to each well. […] All EC50s and IC50s are reported in the following examples in nM, unless indicated otherwise.
# [6] = Administration of GLP-1 conjugates to ovariectomized mice (FIGS. 13, 14); assay type: in vivo
# [7] = Administration of GLP-1 conjugates to mice, model not stated (FIGS. 15, 19); assay type: in vivo; conditions: vs GLP-1 agonist alone or GLP-1 agonist/Estrogen(3-ester) conjugate
# [8] = Example 25: ovariectomized C57BI/6 mice, 4000 μg/kg sc daily for 7 days; assay type: in vivo
# [9] = Example 27: DIO mice, sc daily for two weeks; assay type: in vivo
# Protocol: Diet induced obesity mice were administered subcutaneous injections once per day for two weeks with vehicle or 40 or 400 μg/kg of one of the following: […]
# [10] = Example 29: DIO mice, 400 μg/kg sc daily for seven days; assay type: in vivo
# [11] = Example 30: DIO wild type, ERβ KO and ERα KO mice, 400 μg/kg sc daily for two weeks; assay type: in vivo
# Protocol: Diet-induced obesity wild type mice, estrogen receptor beta knock-out (ERβ KO) mice, and estrogen receptor alpha knock-out (ERα KO) mice were administered subcutaneous injections once per day for two weeks with vehicle or 400 μg/kg of one of the following:
# [12] = Example 21: mice on diabetic diet, sc daily for one week; assay type: in vivo; conditions: between days 0 and 7
# [13] = Example 19: mice, sc daily for one week; assay type: in vivo; conditions: between days 0 and 7
# Protocol: Mice (N=8, average body weight 55 g) were administered subcutaneous injections once per day for one week with vehicle or one of the following:
# Body weight was measured after 7 days and the change in body weight was determined (FIG. 8a). There was little apparent difference in body weight lowering at these doses for the peptides with and without the estrogen.
# [14] = Example 20: DIO mice, sc daily; assay type: in vivo; conditions: 7 days
# Protocol: Diet induced obesity mice (DIO) (N=8, average body weight 61 g) were administered subcutaneous injections once per day for one or two weeks with vehicle or 40, 400, 1200, or 4000 μg/kg of one of the following: […]
# [15] = Example 17: DIO mice, 40 μg/kg sc daily for one week; assay type: in vivo; conditions: between days 0 and 7
# Protocol: Diet-induced obesity (DIO) mice (N=8, average initial body weight=65 g) were subcutaneously injected once per day for one week with vehicle or 40 μg/kg one of the following:
# Body weight was measured after 7 days and the change in body weight and the fat mass were determined (FIG. 6a-b). […] The analysis of fat mass (FIG. 6b) was relatively constant with total loss in body weight.
compound,measurement,setting,value
"[Aib2, E16]GLP-1-CEX-Lys40(NHCO—O-DEX)",agonist activity at the glucocorticoid receptor,[1],retained the greatest amount of activity at the glucocorticoid receptor
CC[C@H](C)[C@H](NC(=O)[C@H](Cc1ccccc1)NC(=O)[C@H](CCC(=O)O)NC(=O)[C@H](CCCCN)NC(=O)[C@H](C)NC(=O)[C@H](C)NC(=O)[C@H](CCC(N)=O)NC(=O)[C@H](CCC(=O)O)NC(=O)[C@H](CCC(=O)O)NC(=O)[C@H](CC(C)C)NC(=O)[C@H](Cc1ccc(O)cc1)NC(=O)[C@H](CO)NC(=O)[C@H](CO)NC(=O)[C@@H](NC(=O)[C@H](CC(=O)O)NC(=O)[C@H](CO)NC(=O)[C@@H](NC(=O)[C@H](Cc1ccccc1)NC(=O)[C@@H](NC(=O)CNC(=O)[C@H](CCC(=O)O)NC(=O)C(C)(C)NC(=O)[C@@H](N)Cc1c[nH]cn1)[C@@H](C)O)[C@@H](C)O)C(C)C)C(=O)N[C@@H](C)C(=O)N[C@@H](Cc1c[nH]c2ccccc12)C(=O)N[C@@H](CC(C)C)C(=O)N[C@H](C(=O)N[C@@H](CCCCN)C(=O)NCC(=O)NCC(=O)N1CCC[C@H]1C(=O)N[C@@H](CO)C(=O)N[C@@H](CO)C(=O)NCC(=O)N[C@@H](C)C(=O)N1CCC[C@H]1C(=O)N1CCC[C@H]1C(=O)N1CCC[C@H]1C(=O)N[C@@H](CO)C(=O)N[C@@H](CCCCNC(=O)COc1ccc2c(c1)CC[C@@H]1[C@@H]2CC[C@]2(C)[C@@H](O)CC[C@@H]12)C(N)=O)C(C)C [GLP-1/Estrogen(3-ether)],EC50,[2],12 ± 3 pM
same,IC50,[3],717 ± 135 pM
GLP-1(Aib^2E^16C^24(PEG-40 kDa)Cex K^40): GLP-1 analog PEGylated (40 kDa) at Cys24 (H[Aib]EGTFTSDVSSYLEEQAAKEFIC(PEG 40 kDa thioether)WLVKGGPSSGAPPPSK-NH2),cumulative food intake,[4],consumed the least amount of food
SEQ ID NO: 22: glucagon analog generated by substituting the native glutamine at position 3 with glutamic acid,selectivity for the GLP-1 receptor,[5],approximately a tenfold selectivity
"GLP-1 agonist/Estrogen(3-ether): active, estrogen-stable GLP-1 agonist/Estrogen(3-ether) conjugate (H[Aib]EGTFTSDVSSYLEEQAAKEFIAWLVKGGPSSGAPPPSK(β‑estradiol 3‑ether)-NH2)",fat mass,[6]; FIG. 13b,decrease in fat mass
same,blood glucose levels,[6]; FIG. 13d,decrease in blood glucose levels greater than vehicle
same,change in body weight,"[6]; vs GLP-1 agonist alone and the inactive d-amino acid conjugates, FIG. 13a",greater decrease
same,food intake,"[6]; vs GLP-1 agonist alone and the inactive d-amino acid conjugates, FIG. 13c",consumed less food
same,change in body weight,[7]; FIG. 15a,significantly greater decrease
same,cumulative food intake,[7]; FIG. 15b,significantly less food
same,change in blood glucose,[8]; 4000 μg/kg,decrease in blood glucose levels greater than vehicle
same,fat mass,[8]; 4000 μg/kg,decrease in fat mass
same,change in body weight,"[8]; 4000 μg/kg, after 7 days",greater decrease in body weight
same,cumulative food intake,[8]; 7 days,consumed less food
same,change in body weight,"[9]; 40 or 400 μg/kg, after 15 days",significantly greater decrease in body weight
same,cumulative food intake,[9]; 15 days,consumed significantly less food
same,change in body weight,[10]; after 7 days,greatest decrease in body weight
same,change in blood glucose,[10]; over 7 days,"decrease in blood glucose levels over 7 days, with the decrease greater in mice that were administered the conjugate"
same,decrease in body weight,"[11]; ERα KO mice, two weeks",~20%
same,decrease in body weight,"[11]; ERβ KO mice, two weeks",~15%
same,cumulative food intake,[11]; knock-out mice,consumed the least amount of food
same,decrease in body weight,"[11]; wild type DIO mice, two week period",~10%
SEQ ID NO: 1659: GLP-1 based glucagon superfamily peptide conjugated to estradiol or estrone through a hydrolyzable linkage ([dA][Aib][dE]G[dT][dF][dT][dS][dD][dV][dS][dS][dY][dL][dE]G[dQ][dA][dA][dK][dE][dA][dI][dA][dW][dL][dV][dK]GG[dP][dS][dS]G[dA][dP][dP][dP][dS]K-NH2; not fully specified (residue 40)),change in blood glucose levels,[12],greater change in blood glucose levels
GLP-1(Aib^2E^16Cex K^40)/Estrogen(3-ester): E16 GLP-1 analog conjugated to estrogen by 3-ester (H[Aib]EGTFTSDVSSYLEEQAAKEFIAWLVKGGPSSGAPPPSK-NH2; not fully specified (residue 40)),change in blood glucose levels,[13],greatest change in blood glucose levels
same,cumulative food intake,[14],consumed significantly less food than mice that were administered GLP-1 alone
GLP-1(Aib^2E^16Cex K^40)/Estrogen(17-ester): E16 GLP-1 analog conjugated to estrogen by 17-ester (H[Aib]EGTFTSDVSSYLEEQAAKEFIAWLVKGGPSSGAPPPSK-NH2; not fully specified (residue 40)),change in blood glucose,[15],greatest change in blood glucose

# — US8859491B2 (priority 2011, dated 2014)
